Reference: patent US20130065818A1, “Arylamide Compounds And Compositions And Uses Thereof” (POLYMEDIX, priority 2006, published 2013)
Converted amounts (≈) assume the structure as drawn. Read-outs that look alike come from different tables or passages of the source.

Experiments:
[1] = system: Staphylococcus aureus fluoroquinolone-resistant; experiment: MIC, 25 ocular isolates, broth microdilution (Example 8); assay type: cell-based
Experimental: (§1) • Mueller-Hinton Broth in tubes was inoculated with 25 ocular isolates of Staphylococcus aureus fluoroquinolone-susceptible, Staphylococcus aureus fluoroquinolone-resistant, Staphylococcus epidermidis (Coagulase-negative Staphylococcus) fluoroquinolone-susceptible, Staphylococcus epidermidis (Coagulase-negative Staphylococcus) fluoroquinolone-resistant, Pseudomonas aeruginosa and Serratia marcescens, plus two controls (Staphylococcus aureus and E. coli) and incubated at 37° C. overnight on a shaker set at 250 rpm.
(§2) On the day of testing, a 640 μg/ml (1280 μg/ml for Serratia marcescens and Pseudomonas aeruginosa) concentration was prepared from a 1% stock solution in 0.01% acetic acid, 0.2% BSA in polypropylene tubes.
(§3) Serial doubling dilutions in 0.01% acetic acid, 0.2% BSA in 96 well polypropylene plates, which are used as reservoirs for the inoculation of the test plates, were carried out to obtain serial dilutions of test agents at 10 times the required test concentrations: 640, 320, 160, 80, 40, 20, 10, 5, 2.5, 1.25, and 0.625 μg/ml (1280, 640, 320, 160, 80, 40, 20, 10, 5, 2.5, and 1.25 μg/ml for Serratia marcescens and Pseudomonas aeruginosa).
(§4) Ten μl of diluted 10×test agents was added to each well of one row of the 96 well polypropylene plates from column 2 to column 12 (column 1 is a control for bacteria alone, with no peptide). Test agent concentrations in columns 2-12 were as follows: 64, 32, 16, 8, 4, 2, 1, 0.5, 0.25, 0.125, and 0.0625 μg/ml (128, 64, 32, 16, 8, 4, 2, 1, 0.5, 0.25, and 0.125 μg/ml for Serratia marcescens and Pseudomonas aeruginosa). The same peptide was in each of the 8 rows. One plate contained dilutions of one test agent and 8 bacterial isolates.
(§5) On the day of testing, the overnight bacterial broth cultures of Staphylococcus aureus fluoroquinolone-susceptible, Staphylococcus aureus fluoroquinolone-resistant, Staphylococcus epidermidis (Coagulase-negative Staphylococcus) fluoroquinolone-susceptible, Staphylococcus epidermidis (Coagulase-negative Staphylococcus) fluoroquinolone-resistant, Serratia marcescens, and Pseudomonas aeruginosa, plus two controls (Staphylococcus aureus and E. coli) were diluted in 5 ml of trypticase soy broth to yield turbidity equal to a 0.5 McFarland standard. The final inoculum for MIC testing for Staphylococcus aureus fluoroquinolone-susceptible, Staphylococcus aureus fluoroquinolone-resistant, Staphylococcus epidermidis (Coagulase-negative Staphylococcus) fluoroquinolone-susceptible, Staphylococcus epidermidis (Coagulase-negative Staphylococcus) fluoroquinolone-resistant, Serratia marcescens, and Pseudomonas aeruginosa was achieved by placing 0.05 ml of the turbidity adjusted sample to 5 ml of Mueller-Hinton broth.
(§6) Ninety μl of the bacterial suspensions was dispensed in each well from column 1 to column 12. Each bacterial isolate was placed in one row of a 96 well polypropylene plate containing the test agents. The plates were placed on shaker at 15 minutes at room temperature, and then incubated at 37° C. overnight. MICs were determined visually as the lowest concentration of drug that inhibits visible bacterial growth.

[2] = system: Staphylococcus epidermidis (Coagulase-negative Staphylococcus) fluoroquinolone-susceptible; experiment: as above; assay type: cell-based
Experimental: as §1, §2, §3, §4, §5, §6

SMILES: N=C(N)NCCCCC(=O)Nc1cc(C(F)(F)F)cc(NC(=O)c2cnc(C(=O)Nc3cc(C(F)(F)F)cc(NC(=O)CCCCNC(=N)N)c3SCCN)cn2)c1SCCN [Oligomer 5]
- MIC50 ([1]; 25 isolates, Row 13): 0.25 µg/mL (≈ 0.273 µM)
- MIC90 ([1]; 25 isolates, Row 22): 0.5 µg/mL (≈ 0.545 µM)
- Range of MICs ([1]; 25 isolates, Summary of Results): 0.125 to 0.5 µg/mL
- MIC ([1]; Staphylococcus aureus, 25 ocular isolates, read-out: Median MIC): ≤ 0.25 µg/mL
- MIC ([1]; Staphylococcus aureus, isolate 1—E504, read-out: MIC): 0.5 µg/mL (≈ 0.545 µM)
- MIC ([1]; Staphylococcus aureus, isolate 2—E475, read-out: MIC): 0.25 µg/mL (≈ 0.273 µM)
- MIC ([1]; Staphylococcus aureus, isolate 3—E442, read-out: MIC): 0.25 µg/mL (≈ 0.273 µM)
- MIC ([1]; Staphylococcus aureus, isolate 4—E427, read-out: MIC): 0.5 µg/mL (≈ 0.545 µM)
- MIC ([1]; Staphylococcus aureus, isolate 5—E425, read-out: MIC): 0.25 µg/mL (≈ 0.273 µM)
- MIC ([1]; Staphylococcus aureus, isolate 6—E424, read-out: MIC): 0.25 µg/mL (≈ 0.273 µM)
- MIC ([1]; Staphylococcus aureus, isolate 7—E417, read-out: MIC): 0.25 µg/mL (≈ 0.273 µM)
- MIC ([1]; Staphylococcus aureus, isolate 8—E407, read-out: MIC): 0.125 µg/mL (≈ 0.136 µM)
- MIC ([1]; Staphylococcus aureus, isolate 9—E401, read-out: MIC): 0.25 µg/mL (≈ 0.273 µM)
- MIC ([1]; Staphylococcus aureus, isolate 10—K1659, read-out: MIC): 0.25 µg/mL (≈ 0.273 µM)
- MIC ([1]; Staphylococcus aureus, isolate 11—E96, read-out: MIC): 0.25 µg/mL (≈ 0.273 µM)
- MIC ([1]; Staphylococcus aureus, isolate 12—E379, read-out: MIC): 0.5 µg/mL (≈ 0.545 µM)
- MIC ([1]; Staphylococcus aureus, isolate 13—E369, read-out: MIC): 0.5 µg/mL (≈ 0.545 µM)
- MIC ([1]; Staphylococcus aureus, isolate 14—E361, read-out: MIC): 0.25 µg/mL (≈ 0.273 µM)
- MIC ([1]; Staphylococcus aureus, isolate 15—E339, read-out: MIC): 0.25 µg/mL (≈ 0.273 µM)
- MIC ([1]; Staphylococcus aureus, isolate 16—E333, read-out: MIC): 0.125 µg/mL (≈ 0.136 µM)
- MIC ([1]; Staphylococcus aureus, isolate 17—E332, read-out: MIC): 0.25 µg/mL (≈ 0.273 µM)
- MIC ([1]; Staphylococcus aureus, isolate 18—E327, read-out: MIC): 0.25 µg/mL (≈ 0.273 µM)
- MIC ([1]; Staphylococcus aureus, isolate 19—E325, read-out: MIC): 0.25 µg/mL (≈ 0.273 µM)
- MIC ([1]; Staphylococcus aureus, isolate 20—K950, read-out: MIC): 0.25 µg/mL (≈ 0.273 µM)
- MIC ([1]; Staphylococcus aureus, isolate 21—K839, read-out: MIC): 0.25 µg/mL (≈ 0.273 µM)
- MIC ([1]; Staphylococcus aureus, isolate 22—K1679, read-out: MIC): 0.25 µg/mL (≈ 0.273 µM)
- MIC ([1]; Staphylococcus aureus, isolate 23—K1677, read-out: MIC): 0.5 µg/mL (≈ 0.545 µM)
- MIC ([1]; Staphylococcus aureus, isolate 24—K1672, read-out: MIC): 0.25 µg/mL (≈ 0.273 µM)
- MIC ([1]; Staphylococcus aureus, isolate 25—K1670, read-out: MIC): 0.25 µg/mL (≈ 0.273 µM)
- MIC ([1]; Staphylococcus aureus, n=25 per group, read-out: Median MIC): 0.25 µg/mL (≈ 0.273 µM)
- MIC50 ([1]; Staphylococcus aureus, 25 isolates, Summary of Results, read-out: MIC50): 0.25 µg/mL (≈ 0.273 µM)
- MIC90 ([1]; Staphylococcus aureus, 25 isolates, Summary of Results, read-out: MIC90): 0.5 µg/mL (≈ 0.545 µM)
- MIC ([1]; Staphylococcus aureus, 25 isolates, Summary of Results, read-out: Median MIC): 0.25 µg/mL (≈ 0.273 µM)
- MIC50 ([1]; n=25 per group): 0.25 µg/mL (≈ 0.273 µM)
- MIC90 ([1]; n=25 per group): 0.5 µg/mL (≈ 0.545 µM)
- Range of MICs ([1]; n=25 per group): 0.125 to 0.5 µg/mL
- MIC50 ([2]; 25 isolates, Row 13): 0.125 µg/mL (≈ 0.136 µM)
- MIC90 ([2]; 25 isolates, Row 22): 0.25 µg/mL (≈ 0.273 µM)
- Range of MICs ([2]; 25 isolates, Summary of Results, <0.0625 was Replaced with 0.03125): 0.03125 to 0.25 µg/mL
- MIC ([2]; Staphylococcus epidermidis, 25 ocular isolates, read-out: Median MIC): ≤ 0.25 µg/mL
- MIC ([2]; Staphylococcus epidermidis, isolate 1—E511, read-out: MIC): 0.25 µg/mL (≈ 0.273 µM)
- MIC ([2]; Staphylococcus epidermidis, isolate 2—E489, read-out: MIC): 0.125 µg/mL (≈ 0.136 µM)
- MIC ([2]; Staphylococcus epidermidis, isolate 3—E491, read-out: MIC): 0.125 µg/mL (≈ 0.136 µM)
- MIC ([2]; Staphylococcus epidermidis, isolate 4—E476, read-out: MIC): 0.25 µg/mL (≈ 0.273 µM)
- MIC ([2]; Staphylococcus epidermidis, isolate 5—E473, read-out: MIC): 0.125 µg/mL (≈ 0.136 µM)
- MIC ([2]; Staphylococcus epidermidis, isolate 6—E462, read-out: MIC): 0.125 µg/mL (≈ 0.136 µM)
- MIC ([2]; Staphylococcus epidermidis, isolate 7—E460, read-out: MIC): 0.125 µg/mL (≈ 0.136 µM)
- MIC ([2]; Staphylococcus epidermidis, isolate 8—E453, read-out: MIC): 0.125 µg/mL (≈ 0.136 µM)
- MIC ([2]; Staphylococcus epidermidis, isolate 9—E448, read-out: MIC): 0.125 µg/mL (≈ 0.136 µM)
- MIC ([2]; Staphylococcus epidermidis, isolate 10—E443, read-out: MIC): < 0.0625 µg/mL
- MIC ([2]; Staphylococcus epidermidis, isolate 11—E441, read-out: MIC): 0.125 µg/mL (≈ 0.136 µM)
- MIC ([2]; Staphylococcus epidermidis, isolate 12—E438, read-out: MIC): 0.125 µg/mL (≈ 0.136 µM)
- MIC ([2]; Staphylococcus epidermidis, isolate 13—E437, read-out: MIC): 0.125 µg/mL (≈ 0.136 µM)
- MIC ([2]; Staphylococcus epidermidis, isolate 14—E434, read-out: MIC): 0.125 µg/mL (≈ 0.136 µM)
- MIC ([2]; Staphylococcus epidermidis, isolate 15—E433, read-out: MIC): 0.125 µg/mL (≈ 0.136 µM)
- MIC ([2]; Staphylococcus epidermidis, isolate 16—E430, read-out: MIC): 0.125 µg/mL (≈ 0.136 µM)
- MIC ([2]; Staphylococcus epidermidis, isolate 17—E420, read-out: MIC): 0.125 µg/mL (≈ 0.136 µM)
- MIC ([2]; Staphylococcus epidermidis, isolate 18—E419, read-out: MIC): 0.125 µg/mL (≈ 0.136 µM)
- MIC ([2]; Staphylococcus epidermidis, isolate 19—E403, read-out: MIC): 0.125 µg/mL (≈ 0.136 µM)
- MIC ([2]; Staphylococcus epidermidis, isolate 20—E394, read-out: MIC): 0.125 µg/mL (≈ 0.136 µM)
- MIC ([2]; Staphylococcus epidermidis, isolate 21—E393, read-out: MIC): 0.125 µg/mL (≈ 0.136 µM)
- MIC ([2]; Staphylococcus epidermidis, isolate 22—E328, read-out: MIC): 0.25 µg/mL (≈ 0.273 µM)
- MIC ([2]; Staphylococcus epidermidis, isolate 23—E382, read-out: MIC): 0.125 µg/mL (≈ 0.136 µM)
- MIC ([2]; Staphylococcus epidermidis, isolate 24—E381, read-out: MIC): 0.25 µg/mL (≈ 0.273 µM)
- MIC ([2]; Staphylococcus epidermidis, isolate 25—E372, read-out: MIC): < 0.0625 µg/mL
- MIC ([2]; Staphylococcus epidermidis, n=25 per group, read-out: Median MIC): 0.125 µg/mL (≈ 0.136 µM)
- MIC50 ([2]; Staphylococcus epidermidis, 25 isolates, Summary of Results, read-out: MIC50): 0.125 µg/mL (≈ 0.136 µM)
- MIC90 ([2]; Staphylococcus epidermidis, 25 isolates, Summary of Results, read-out: MIC90): 0.25 µg/mL (≈ 0.273 µM)
- MIC ([2]; Staphylococcus epidermidis, 25 isolates, Summary of Results, read-out: Median MIC): 0.125 µg/mL (≈ 0.136 µM)
- MIC50 ([2]; n=25 per group): 0.125 µg/mL (≈ 0.136 µM)
- MIC90 ([2]; n=25 per group): 0.25 µg/mL (≈ 0.273 µM)
- Range of MICs ([2]; n=25 per group): 0.03125 to 0.25 µg/mL
